Test results as given in ChEMBL document CHEMBL4507298 (2021).

How the values were obtained:
[1] = target: T1, Muscarinic acetylcholine receptor M5 (Homo sapiens) (UniProt P08912); details: Compound concentration 10.0 uM
T1 sequence (whole entry): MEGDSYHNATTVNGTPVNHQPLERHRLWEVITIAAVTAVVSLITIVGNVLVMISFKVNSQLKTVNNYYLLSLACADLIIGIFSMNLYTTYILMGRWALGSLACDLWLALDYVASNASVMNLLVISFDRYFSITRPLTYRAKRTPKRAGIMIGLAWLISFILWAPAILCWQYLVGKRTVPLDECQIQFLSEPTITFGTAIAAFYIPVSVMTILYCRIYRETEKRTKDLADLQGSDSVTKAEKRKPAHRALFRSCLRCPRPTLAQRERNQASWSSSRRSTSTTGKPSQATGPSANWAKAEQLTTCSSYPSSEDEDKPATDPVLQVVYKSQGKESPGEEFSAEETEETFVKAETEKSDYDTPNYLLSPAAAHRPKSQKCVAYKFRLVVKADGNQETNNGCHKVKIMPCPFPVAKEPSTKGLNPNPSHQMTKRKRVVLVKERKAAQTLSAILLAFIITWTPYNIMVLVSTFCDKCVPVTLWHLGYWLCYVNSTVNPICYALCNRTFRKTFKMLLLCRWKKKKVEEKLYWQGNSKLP

[2] = target: Serine/threonine-protein kinase Chk2 (Homo sapiens) (UniProt O96017); details: Compound concentration 1000.0 nM
[3] = target: Alpha-1D adrenergic receptor (Homo sapiens) (UniProt P25100); details: Compound concentration 10.0 uM
[4] = target: T2, Alpha-2A adrenergic receptor (Homo sapiens) (UniProt P08913); details: Compound concentration 10.0 uM
T2 sequence (whole entry): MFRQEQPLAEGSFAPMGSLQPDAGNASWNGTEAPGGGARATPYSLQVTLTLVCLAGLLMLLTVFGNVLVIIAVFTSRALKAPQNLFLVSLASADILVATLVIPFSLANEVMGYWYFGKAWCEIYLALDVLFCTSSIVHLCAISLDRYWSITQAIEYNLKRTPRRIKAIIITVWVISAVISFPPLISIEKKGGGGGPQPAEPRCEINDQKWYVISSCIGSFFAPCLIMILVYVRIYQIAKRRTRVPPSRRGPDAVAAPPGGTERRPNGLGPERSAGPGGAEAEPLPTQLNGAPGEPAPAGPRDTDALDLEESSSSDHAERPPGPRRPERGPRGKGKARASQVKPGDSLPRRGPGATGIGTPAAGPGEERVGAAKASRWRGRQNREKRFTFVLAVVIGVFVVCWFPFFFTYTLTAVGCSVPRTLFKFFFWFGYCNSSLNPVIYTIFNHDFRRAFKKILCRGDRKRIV

[5] = target: T3, Muscarinic acetylcholine receptor M2 (Homo sapiens) (UniProt P08172); details: Compound concentration 10.0 uM
T3 sequence (whole entry): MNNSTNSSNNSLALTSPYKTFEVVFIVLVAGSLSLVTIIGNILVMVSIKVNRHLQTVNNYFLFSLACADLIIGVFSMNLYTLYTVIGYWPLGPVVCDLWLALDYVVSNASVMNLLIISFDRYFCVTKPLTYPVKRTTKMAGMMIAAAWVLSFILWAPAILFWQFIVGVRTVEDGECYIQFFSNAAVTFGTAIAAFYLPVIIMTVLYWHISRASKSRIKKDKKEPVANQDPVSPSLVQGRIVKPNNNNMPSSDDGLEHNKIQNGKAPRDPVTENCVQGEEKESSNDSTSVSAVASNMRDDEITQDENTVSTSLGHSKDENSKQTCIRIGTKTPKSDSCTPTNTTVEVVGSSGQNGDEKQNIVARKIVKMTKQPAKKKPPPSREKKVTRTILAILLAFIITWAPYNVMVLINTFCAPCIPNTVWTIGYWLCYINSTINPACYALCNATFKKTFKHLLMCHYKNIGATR

[6] = target: Glucocorticoid receptor (Homo sapiens) (UniProt P04150); assay: GR (h) CEREP ligand profiling; details: Compound concentration 10.0 uM
[7] = target: 5-hydroxytryptamine receptor 6 (Homo sapiens) (UniProt P50406); details: Compound concentration 10.0 uM
[8] = target: Sodium-dependent noradrenaline transporter (Homo sapiens) (UniProt P23975); assay: NE transporter (h) CEREP ligand profiling; details: Compound concentration 10.0 uM
[9] = target: D(1B) dopamine receptor (Homo sapiens) (UniProt P21918); details: Compound concentration 10.0 uM
[10] = target: Cyclin-dependent kinase-like 5 (Homo sapiens) (UniProt O76039); details: Compound concentration 1000.0 nM
Prostacyclin receptor = Prostacyclin receptor (Homo sapiens, UniProt P43119); assay: Binding assay (PTGIR)
[11] = target: T4, Muscarinic acetylcholine receptor M1 (Homo sapiens) (UniProt P11229); details: Compound concentration 10.0 uM
T4 sequence (whole entry): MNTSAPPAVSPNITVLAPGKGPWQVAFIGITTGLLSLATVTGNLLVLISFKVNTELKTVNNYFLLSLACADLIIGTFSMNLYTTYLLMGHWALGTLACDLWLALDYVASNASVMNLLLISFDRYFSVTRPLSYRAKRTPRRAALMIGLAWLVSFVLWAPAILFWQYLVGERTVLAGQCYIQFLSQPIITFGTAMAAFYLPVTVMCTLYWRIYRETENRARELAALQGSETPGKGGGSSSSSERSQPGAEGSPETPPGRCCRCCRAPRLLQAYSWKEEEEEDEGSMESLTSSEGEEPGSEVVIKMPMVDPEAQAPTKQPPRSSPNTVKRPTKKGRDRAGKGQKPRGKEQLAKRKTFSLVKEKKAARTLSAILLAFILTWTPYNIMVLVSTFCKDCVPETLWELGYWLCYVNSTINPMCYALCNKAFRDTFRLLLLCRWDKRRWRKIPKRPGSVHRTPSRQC

[12] = target: Serine/threonine-protein kinase LATS2 (Homo sapiens) (UniProt Q9NRM7); details: Compound concentration 1000.0 nM
[13] = target: Mitogen-activated protein kinase kinase kinase 2 (Homo sapiens) (UniProt Q9Y2U5); details: Compound concentration 1000.0 nM
[14] = target: 5-hydroxytryptamine receptor 2B (Homo sapiens) (UniProt P41595); details: Compound concentration 10.0 uM
[15] = target: D(3) dopamine receptor (Homo sapiens) (UniProt P35462); details: Compound concentration 10.0 uM
[16] = target: Delta-type opioid receptor (Homo sapiens) (UniProt P41143); details: Compound concentration 10.0 uM
[17] = target: Sodium-dependent serotonin transporter (Homo sapiens) (UniProt P31645); details: Compound concentration 10.0 uM
[18] = target: Sodium-dependent noradrenaline transporter (Homo sapiens) (UniProt P23975); details: Compound concentration 10.0 uM
[19] = target: 5-hydroxytryptamine receptor 1E (Homo sapiens) (UniProt P28566); details: Compound concentration 10.0 uM
5-hydroxytryptamine receptor 1E (Homo sapiens), sequence (P28566 whole entry): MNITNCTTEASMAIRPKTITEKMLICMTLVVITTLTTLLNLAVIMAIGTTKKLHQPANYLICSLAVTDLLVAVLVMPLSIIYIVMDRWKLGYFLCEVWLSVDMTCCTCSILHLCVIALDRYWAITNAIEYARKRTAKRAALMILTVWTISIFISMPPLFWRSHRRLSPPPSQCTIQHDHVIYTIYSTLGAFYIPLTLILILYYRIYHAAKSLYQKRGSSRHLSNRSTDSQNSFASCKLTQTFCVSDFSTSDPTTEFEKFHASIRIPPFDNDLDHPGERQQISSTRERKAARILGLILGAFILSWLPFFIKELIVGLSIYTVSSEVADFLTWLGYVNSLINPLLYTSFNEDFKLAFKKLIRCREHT

Sodium-dependent noradrenaline transporter (Homo sapiens), sequence (P23975 whole entry): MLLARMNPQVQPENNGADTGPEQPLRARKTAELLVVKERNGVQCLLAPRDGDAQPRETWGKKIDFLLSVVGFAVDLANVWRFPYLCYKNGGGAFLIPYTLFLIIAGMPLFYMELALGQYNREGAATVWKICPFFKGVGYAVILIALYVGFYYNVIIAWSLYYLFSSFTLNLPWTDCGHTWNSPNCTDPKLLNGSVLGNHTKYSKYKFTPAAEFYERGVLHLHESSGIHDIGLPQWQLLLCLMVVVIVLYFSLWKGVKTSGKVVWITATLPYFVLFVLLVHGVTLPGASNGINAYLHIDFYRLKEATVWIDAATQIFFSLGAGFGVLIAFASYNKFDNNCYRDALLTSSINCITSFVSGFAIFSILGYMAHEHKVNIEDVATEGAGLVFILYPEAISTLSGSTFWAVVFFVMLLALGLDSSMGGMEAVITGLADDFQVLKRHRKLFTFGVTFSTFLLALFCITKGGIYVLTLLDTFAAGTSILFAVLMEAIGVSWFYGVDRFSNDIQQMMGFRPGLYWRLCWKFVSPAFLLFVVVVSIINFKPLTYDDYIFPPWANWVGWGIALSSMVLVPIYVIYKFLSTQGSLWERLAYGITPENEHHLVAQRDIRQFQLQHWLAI
5-hydroxytryptamine receptor 6 (Homo sapiens), sequence (P50406 whole entry): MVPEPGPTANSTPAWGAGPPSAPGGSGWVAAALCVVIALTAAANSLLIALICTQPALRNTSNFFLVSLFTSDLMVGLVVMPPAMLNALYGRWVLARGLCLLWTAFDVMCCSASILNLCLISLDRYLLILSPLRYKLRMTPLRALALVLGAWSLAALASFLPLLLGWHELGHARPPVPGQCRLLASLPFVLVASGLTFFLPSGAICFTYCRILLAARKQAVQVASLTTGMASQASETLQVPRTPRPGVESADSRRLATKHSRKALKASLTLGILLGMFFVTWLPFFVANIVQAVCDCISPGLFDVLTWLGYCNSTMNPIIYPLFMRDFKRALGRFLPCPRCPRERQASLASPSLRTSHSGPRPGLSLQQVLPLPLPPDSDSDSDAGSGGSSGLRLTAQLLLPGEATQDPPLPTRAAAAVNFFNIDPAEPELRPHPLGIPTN
D(3) dopamine receptor (Homo sapiens), sequence (P35462 whole entry): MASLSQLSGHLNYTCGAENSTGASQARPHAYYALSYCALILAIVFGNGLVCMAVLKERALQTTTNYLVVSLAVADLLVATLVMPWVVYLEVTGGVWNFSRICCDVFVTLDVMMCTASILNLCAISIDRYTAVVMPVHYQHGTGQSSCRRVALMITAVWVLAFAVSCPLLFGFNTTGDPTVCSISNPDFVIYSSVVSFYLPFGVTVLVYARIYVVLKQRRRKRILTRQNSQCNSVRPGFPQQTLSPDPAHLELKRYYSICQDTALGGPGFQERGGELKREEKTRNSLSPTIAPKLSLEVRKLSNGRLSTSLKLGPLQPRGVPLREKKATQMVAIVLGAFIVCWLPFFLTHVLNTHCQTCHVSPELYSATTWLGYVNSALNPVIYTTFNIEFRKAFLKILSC
Alpha-1D adrenergic receptor (Homo sapiens), sequence (P25100 whole entry): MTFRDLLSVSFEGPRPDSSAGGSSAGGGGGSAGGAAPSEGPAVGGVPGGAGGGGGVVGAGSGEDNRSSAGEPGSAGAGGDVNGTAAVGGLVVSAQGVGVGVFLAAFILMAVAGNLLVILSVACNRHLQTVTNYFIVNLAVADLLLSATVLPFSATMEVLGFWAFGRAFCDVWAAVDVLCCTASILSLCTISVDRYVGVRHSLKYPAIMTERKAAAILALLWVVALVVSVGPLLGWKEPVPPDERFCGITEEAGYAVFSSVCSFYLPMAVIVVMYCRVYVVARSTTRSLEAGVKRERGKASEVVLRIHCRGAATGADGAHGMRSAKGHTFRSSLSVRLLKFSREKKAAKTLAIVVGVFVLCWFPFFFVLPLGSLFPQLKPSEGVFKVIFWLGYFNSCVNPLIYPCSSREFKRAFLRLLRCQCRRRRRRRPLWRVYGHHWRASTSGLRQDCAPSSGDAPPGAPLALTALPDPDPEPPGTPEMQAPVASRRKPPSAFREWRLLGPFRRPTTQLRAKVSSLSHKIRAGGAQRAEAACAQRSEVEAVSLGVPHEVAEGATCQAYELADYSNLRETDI
D(1B) dopamine receptor (Homo sapiens), sequence (P21918 whole entry): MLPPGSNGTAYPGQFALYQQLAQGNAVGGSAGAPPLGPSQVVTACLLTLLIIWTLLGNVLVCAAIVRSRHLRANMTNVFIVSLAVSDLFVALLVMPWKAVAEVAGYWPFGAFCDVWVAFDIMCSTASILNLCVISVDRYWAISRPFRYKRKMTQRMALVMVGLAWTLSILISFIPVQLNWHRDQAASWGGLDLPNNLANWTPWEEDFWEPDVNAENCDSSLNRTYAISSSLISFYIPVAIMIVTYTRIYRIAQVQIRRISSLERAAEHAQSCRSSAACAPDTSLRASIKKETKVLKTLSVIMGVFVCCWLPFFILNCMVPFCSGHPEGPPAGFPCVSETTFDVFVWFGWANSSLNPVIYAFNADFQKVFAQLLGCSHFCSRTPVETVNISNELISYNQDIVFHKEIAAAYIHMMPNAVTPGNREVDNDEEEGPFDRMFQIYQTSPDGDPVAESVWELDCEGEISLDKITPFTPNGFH
Sodium-dependent serotonin transporter (Homo sapiens), sequence (P31645 whole entry, looked up): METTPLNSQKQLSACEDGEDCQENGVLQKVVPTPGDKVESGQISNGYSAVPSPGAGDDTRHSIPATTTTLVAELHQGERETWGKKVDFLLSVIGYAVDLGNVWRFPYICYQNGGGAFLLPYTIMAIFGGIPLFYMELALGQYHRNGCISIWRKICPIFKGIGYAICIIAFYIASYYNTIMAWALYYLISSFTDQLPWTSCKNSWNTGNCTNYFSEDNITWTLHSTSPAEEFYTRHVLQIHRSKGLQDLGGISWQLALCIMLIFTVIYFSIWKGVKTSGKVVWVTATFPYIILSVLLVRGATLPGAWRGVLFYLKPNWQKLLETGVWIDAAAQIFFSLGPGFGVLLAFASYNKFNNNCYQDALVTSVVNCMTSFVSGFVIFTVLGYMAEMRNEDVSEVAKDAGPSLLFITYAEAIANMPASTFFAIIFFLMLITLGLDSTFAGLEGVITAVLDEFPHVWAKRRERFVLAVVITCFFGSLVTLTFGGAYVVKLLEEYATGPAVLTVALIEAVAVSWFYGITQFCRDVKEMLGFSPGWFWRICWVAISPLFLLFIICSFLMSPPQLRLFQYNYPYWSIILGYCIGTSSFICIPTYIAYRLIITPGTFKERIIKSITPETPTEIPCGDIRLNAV
5-hydroxytryptamine receptor 2B (Homo sapiens), sequence (P41595 whole entry): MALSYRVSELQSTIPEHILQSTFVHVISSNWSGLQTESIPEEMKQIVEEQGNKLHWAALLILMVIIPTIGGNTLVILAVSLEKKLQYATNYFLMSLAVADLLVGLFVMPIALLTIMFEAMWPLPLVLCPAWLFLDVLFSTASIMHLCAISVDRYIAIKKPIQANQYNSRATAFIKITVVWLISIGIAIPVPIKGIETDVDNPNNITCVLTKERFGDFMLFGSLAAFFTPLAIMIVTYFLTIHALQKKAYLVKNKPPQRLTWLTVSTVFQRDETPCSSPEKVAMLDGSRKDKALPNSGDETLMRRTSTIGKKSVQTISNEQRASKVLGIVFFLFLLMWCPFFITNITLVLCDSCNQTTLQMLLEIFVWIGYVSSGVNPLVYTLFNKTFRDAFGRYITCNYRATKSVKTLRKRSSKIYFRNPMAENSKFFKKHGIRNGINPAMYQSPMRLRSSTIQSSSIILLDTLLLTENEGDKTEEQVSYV
Delta-type opioid receptor (Homo sapiens), sequence (P41143 whole entry): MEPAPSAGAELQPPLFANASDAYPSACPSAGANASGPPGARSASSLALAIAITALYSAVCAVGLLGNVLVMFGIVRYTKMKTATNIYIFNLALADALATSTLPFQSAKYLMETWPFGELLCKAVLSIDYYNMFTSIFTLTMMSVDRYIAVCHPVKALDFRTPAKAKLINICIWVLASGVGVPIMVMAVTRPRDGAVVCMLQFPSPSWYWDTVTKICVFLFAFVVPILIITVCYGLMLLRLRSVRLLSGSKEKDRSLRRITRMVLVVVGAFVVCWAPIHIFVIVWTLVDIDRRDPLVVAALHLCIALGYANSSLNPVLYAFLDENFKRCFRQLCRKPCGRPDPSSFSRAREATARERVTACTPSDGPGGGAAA
Mitogen-activated protein kinase kinase kinase 2 (Homo sapiens), sequence (Q9Y2U5 whole entry): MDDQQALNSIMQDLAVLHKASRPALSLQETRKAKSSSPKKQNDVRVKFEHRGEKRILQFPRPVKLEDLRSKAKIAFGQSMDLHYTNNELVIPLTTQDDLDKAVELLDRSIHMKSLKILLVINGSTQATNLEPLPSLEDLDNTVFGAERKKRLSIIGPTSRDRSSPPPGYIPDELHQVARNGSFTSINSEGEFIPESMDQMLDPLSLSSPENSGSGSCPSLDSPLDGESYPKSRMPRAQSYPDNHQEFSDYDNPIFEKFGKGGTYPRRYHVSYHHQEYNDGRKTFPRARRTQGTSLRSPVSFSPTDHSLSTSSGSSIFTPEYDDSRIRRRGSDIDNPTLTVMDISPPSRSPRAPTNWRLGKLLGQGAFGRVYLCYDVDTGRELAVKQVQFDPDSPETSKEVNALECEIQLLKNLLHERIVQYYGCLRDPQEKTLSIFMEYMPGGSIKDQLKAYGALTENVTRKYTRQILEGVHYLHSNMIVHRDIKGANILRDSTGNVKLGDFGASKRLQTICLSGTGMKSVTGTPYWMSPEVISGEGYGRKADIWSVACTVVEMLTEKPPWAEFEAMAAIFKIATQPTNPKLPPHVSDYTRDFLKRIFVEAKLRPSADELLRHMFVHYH

Structure (SMILES) | inhibition [1] | residual activity [2] | inhibition [3] | inhibition [4] | inhibition [5] | inhibition [6] | inhibition [7] | inhibition [8] | inhibition [9] | residual activity [10] | Ki (Prostacyclin receptor) | inhibition [11] | residual activity [12] | residual activity [13] | inhibition [14] | inhibition [15] | inhibition [16] | inhibition [17] | inhibition [18] | inhibition [19]
COc1ccc2cc(OCC3(C(=O)O)CN(C(=O)c4ccc(F)cc4)C3)ccc2c1 [PF-04418948] | -7.44% | 93% | -3.76% | 21.8% | 16.7% | -1% | -6.47% | -2% | -2.51% | 97% | > 10 µM (not active) | -0.03% | 90% | 96% | -0.11% | 33% | 5.07% | -6.83% | 11% | 11%
O=C(c1ccc(F)cc1)N1CC(COc2ccc(Br)cc2)(C(=O)O)C1 [PF-04475866] | -0.33% | – | 5% | 14.2% | 26.7% | – | -2.64% | – | 2.2% | – | – | -0.69% | – | – | -2.5% | 3.89% | -5.22% | -6.29% | 16.8% | 12.2%
